Results as given in ChEMBL document CHEMBL1240305, “Alkylation of duplex DNA in nucleosome core particles by duocarmycin SA and yatakemycin” (Nat Chem Biol, 2006).
The source made the active and inactive calls. The rule behind the calls is not given here.

Columns and labels:
Assay type in all cases: nucleic-acid assay
[1] = system: Nucleic Acid; test: Induction of thermal cleavage in alpha satellite DNA 5'-GGAAAC-3' in […] at 10 uM at 25 degC after 17 hrs by non-denaturating gel electrophoresis
[2] = system: Nucleic Acid; test: Induction of DNA alkylation-mediated […] at 25 degC after 16 hrs by non-denaturating gel electrophoresis
[3] = system: Nucleic Acid; test: Binding affinity to alpha satellite DNA assessed as neucleosome reconstitution after 17 hrs at 25 degC by non-denaturating gel electrophoresis
[4] = system: Nucleic Acid; test: Induction of thermal cleavage in protein free alpha satellite DNA 5'-CAAAAG-3' at 10 uM at 25 degC after 1 hr by non-denaturating gel electrophoresis
[5] = system: Nucleic Acid; test: Induction of thermal cleavage in alpha satellite DNA 5'-CAAAAG-3' in […] at 10 uM at 25 degC after 17 hrs by non-denaturating gel electrophoresis
[6] = system: Nucleic Acid; test: Induction of thermal cleavage in protein free alpha satellite DNA 5'-GGAAAC-3' at 10 uM at 25 degC after 17 hrs by non-denaturating gel electrophoresis
[7] = system: Nucleic Acid; test: Induction of thermal cleavage in alpha satellite DNA at 10 uM at 25 degC after 1 hr by non-denaturating gel electrophoresis
[8] = system: Nucleic Acid; test: Induction of thermal cleavage in alpha satellite DNA at 10 uM at 25 degC after 30 mins by non-denaturating gel electrophoresis
[9] = system: Nucleic Acid; test: Induction of thermal cleavage in protein free alpha satellite DNA 5'-GAAACT-3' at 10 uM at 25 degC after 17 hrs by non-denaturating gel electrophoresis
[10] = system: Nucleic Acid; test: Induction of thermal cleavage in alpha satellite DNA 5'-GAAACT-3' in […] at 10 uM at 25 degC after 17 hrs by non-denaturating gel electrophoresis

What does the source list for `COc1cc2[nH]c(C(=O)N3C[C@H]4C[C@@]45C3=CC(=O)c3[nH]c(C(=O)N4CCc6c4c(O)c(OC)c4[nH]c(C(=O)SC)cc64)cc35)cc2cc1O`?
Activity [1]: Active; Activity [2]: Active; Activity [3]: Active; Activity [4]: Active; Activity [5]: Active; Activity [6]: Active

`COC(=O)c1cc2c([nH]1)C(=O)C=C1N(C(=O)c3cc4cc(OC)c(OC)c(OC)c4[nH]3)C[C@H]3C[C@]123` was tested. Which Activity [7] did it give?
Its Activity is “Active”.

What about the Activity [8] of the same molecule?
Its Activity is 1 ×10⁻⁵ M.

And the Activity [3]?
Its Activity is “Active”.

What about the Activity [6] of the same molecule?
Its Activity is “Active”.

Which results are given for `COc1cc2[nH]c(C(=O)N3C[C@@H]4C[C@]45C3=CC(=O)c3[nH]c(C(=O)N4CCc6c4c(O)c(OC)c4[nH]c(C(=O)SC)cc64)cc35)cc2cc1O`?
Activity [9]: Active; Activity [10]: Active; Activity [3]: Active; Activity [6]: Active
